In publication PMC11643494, “Structure–Activity Relationship Studies in a Series of 2-Aryloxy-N-(pyrimidin-5-yl)acetamide Inhibitors of SLACK Potassium Channels” (Molecules, 2024):

Biological target: T1, WT human SLACK (Homo sapiens, UniProt Q5JUK3)
T1 construct: host or cells: CHO-K1
T1 sequence (Q5JUK3 1-1235 isoform Q5JUK3-3): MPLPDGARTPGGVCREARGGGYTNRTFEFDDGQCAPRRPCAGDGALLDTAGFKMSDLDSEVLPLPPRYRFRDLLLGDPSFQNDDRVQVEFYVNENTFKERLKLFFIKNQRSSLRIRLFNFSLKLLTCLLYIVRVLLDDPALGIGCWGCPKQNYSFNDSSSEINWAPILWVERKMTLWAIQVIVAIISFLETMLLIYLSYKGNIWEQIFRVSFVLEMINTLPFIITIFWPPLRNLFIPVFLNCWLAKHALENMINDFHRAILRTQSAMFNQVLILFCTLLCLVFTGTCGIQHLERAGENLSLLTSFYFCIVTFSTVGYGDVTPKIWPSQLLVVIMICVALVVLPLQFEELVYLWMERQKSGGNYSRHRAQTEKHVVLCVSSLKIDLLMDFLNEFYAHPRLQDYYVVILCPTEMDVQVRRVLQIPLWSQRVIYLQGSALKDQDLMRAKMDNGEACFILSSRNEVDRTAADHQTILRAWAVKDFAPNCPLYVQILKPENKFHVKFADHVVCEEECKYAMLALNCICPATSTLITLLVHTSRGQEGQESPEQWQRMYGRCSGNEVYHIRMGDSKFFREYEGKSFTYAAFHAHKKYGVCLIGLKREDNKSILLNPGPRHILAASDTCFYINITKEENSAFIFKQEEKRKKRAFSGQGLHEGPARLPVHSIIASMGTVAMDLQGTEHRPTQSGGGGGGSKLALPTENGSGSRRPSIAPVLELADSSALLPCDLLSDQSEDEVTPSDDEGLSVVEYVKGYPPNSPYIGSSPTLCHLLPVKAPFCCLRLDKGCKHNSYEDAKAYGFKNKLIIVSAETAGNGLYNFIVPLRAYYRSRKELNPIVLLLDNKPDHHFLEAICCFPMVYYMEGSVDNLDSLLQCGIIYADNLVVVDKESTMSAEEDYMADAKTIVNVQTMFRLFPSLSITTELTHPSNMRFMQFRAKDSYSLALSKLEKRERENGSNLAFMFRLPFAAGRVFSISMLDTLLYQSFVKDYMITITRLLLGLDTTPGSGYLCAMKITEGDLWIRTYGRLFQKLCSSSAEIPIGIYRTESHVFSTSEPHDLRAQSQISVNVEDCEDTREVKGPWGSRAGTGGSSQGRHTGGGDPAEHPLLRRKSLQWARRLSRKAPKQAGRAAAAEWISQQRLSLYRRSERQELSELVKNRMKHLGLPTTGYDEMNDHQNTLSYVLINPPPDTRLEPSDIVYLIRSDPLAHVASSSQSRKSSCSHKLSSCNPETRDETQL
Assay: Whole-cell automated patch clamp (APC) in CHO-K1 cells stably expressing WT human SLACK
Assay type: cell-based
Conditions: for IC50 / WT SLACK inhibition, result in words: APC; for IC50: CHO-K1 cells stably expressing WT human SLACK, averages (n ≥ 3); for SLACK Imax: maximum inhibition at 30 µM test compound standardized to VU0606170 (set at 100%), WT human SLACK; for WT SLACK inhibition, result in words: concentrations 0.125 to 30 µM; for Fold less potent than hit 10 (SLACK inhibition): ratio of WT SLACK APC IC50 to hit 10
Description: Using concentrations ranging from 0.125 to 30 µM in half-log steps, a concentration–response relationship was generated for each new analog using our APC assay in CHO-K1 cells stably expressing WT SLACK. A minimum of three cells, i.e., replicates, were collected per concentration for each analog.
Automated patch clamp recording was performed with a SyncroPatch 768 PE system (Nanion, Munich, Germany) as previously described. Whole-cell recordings were performed at room temperature. Cells were harvested by first washing with PBS without Mg^2+ or Ca^2+ (Gibco, Billings, MT, USA) to remove cell culture medium, followed by dissociation with TryPLE (Gibco, Billings, MT, USA). Cells were then resuspended and diluted to 200,000 cells/mL in external solution. External solution contained 105 mM NaCl, 4 mM KCl, 1 mM MgCl2, 5 mM CaCl2, 10 mM HEPES, 40 mM N-Methyl-D-glucamine chloride, titrated to pH 7.4 with NaOH and osmolarity of 300 mOsm/kg; internal solution contained 70 mM NaCl, 70 mM KF, 10 mM KCl, 5 mM EGTA, 5mM HEPES, titrated to a pH 7.2 with KOH and osmolarity of 295 mOsm/kg.
The APC protocol was set as following: Cells were held at […] −80 mV for 100 ms, then a ramp protocol was performed from −100 mV to 80 mV at 0.4 mV/ms, hold the cell at −80 mV for another 100 ms, then steps were performed at −20 mV, 0 mV, +20 mV, +40 mV, and +60 mV for 100 ms of each step. Whole-cell currents were measured at 0 mV and normalized to current after external buffer addition.

Row | IC50 [µM] | SLACK Imax [%] | WT SLACK inhibition, result in words | Fold less potent than hit 10 (SLACK inhibition) | Compound
1 | 1.7 |  |  |  | CC(C)(Oc1ccc(Cl)cc1)C(=O)Nc1cnc(Oc2ccc(F)c(F)c2)nc1 [Analog 41]
2 | 7.1 | 97 |  |  | Cc1ccc(OC(C)(C)C(=O)Nc2cnc(Oc3ccccc3F)nc2)cc1 [Analog 52]
3 | 0.58 | 91 |  |  | CC(C)(Oc1ccc(Cl)cc1)C(=O)Nc1cnc(Oc2c(F)cccc2Cl)nc1 [Analog 43]
4 | 1.2 | 97 |  |  | CC(C)(Oc1ccc(Cl)cc1)C(=O)Nc1cnc(Oc2ccccc2Cl)nc1 [Analog 18]
5 | 1.8 | 102 |  |  | CC(C)(Oc1ccc(Cl)cc1)C(=O)Nc1cnc(Oc2ccc(F)cc2)nc1 [Analog 17]
6 | 1.1 |  |  |  | CC(C)(Oc1ccc(Cl)cc1)C(=O)Nc1cnc(Oc2ccc(S(C)(=O)=O)cc2)nc1 [Analog 36]
7 |  |  | inactive |  | O=C(COc1ccc(Cl)cc1)Nc1cnc(Oc2ccccc2F)nc1 [Analog 75]
8 | 2.1 |  |  |  | O=C(Nc1cnc(Oc2ccccc2F)nc1)C(F)(F)Oc1ccc(Cl)cc1 [Analog 79]
9 | 2.3 |  |  |  | Cc1cccc(Oc2ncc(NC(=O)C(C)(C)Oc3ccc(Cl)cc3)cn2)c1 [Analog 22]
10 | > 10 | 52 | only weak inhibitors |  | CC(C)(Oc1ccc(Cl)cc1)C(=O)Nc1ccc(Oc2ccccc2F)cn1 [Analog 89]
11 | 0.94 |  |  |  | CC(C)(Oc1ccc(Cl)cc1)C(=O)Nc1cnc(Oc2ccccc2C#N)nc1 [Analog 33]
12 | 5.1 | 102 |  |  | O=C(CCc1ccc(Cl)cc1)Nc1cnc(Oc2ccccc2F)nc1 [Analog 74]
13 | > 10 | 104 | only weak inhibitors |  | CC(C)(Oc1ccc(OC(F)(F)F)cc1)C(=O)Nc1cnc(Oc2ccccc2F)nc1 [Analog 58]
14 | > 10 | 79 |  |  | CN(Cc1ccc(Cl)cc1)C(=O)Nc1cnc(Oc2ccccc2F)nc1 [Analog 82]
15 | 7.2 |  |  | 5 fold | CC(C)(Cc1ccc(Cl)cc1)C(=O)Nc1cnc(Oc2ccccc2F)nc1 [Analog 73]
16 | 1.7 |  |  |  | CC(C)(Oc1ccc(Cl)cc1)C(=O)Nc1cnc(Oc2ccccc2)nc1 [Analog 15]
17 | > 10 | 66 | only weakly active |  | CC(C)(Oc1ccccc1)C(=O)Nc1cnc(Oc2ccccc2F)nc1 [Analog 44]
18 | 1.5 |  |  |  | CC(C)(Oc1ccc(Cl)cc1)C(=O)Nc1cnc(Oc2cccc(Cl)c2)nc1 [Analog 19]
19 | 4.1 |  |  | approximately 3 fold | CC(C)(Sc1ccc(Cl)cc1)C(=O)Nc1cnc(Oc2ccccc2F)nc1 [Analog 68]
20 | 0.89 | 101 |  |  | CC(C)(Oc1ccc(Cl)cc1)C(=O)Nc1cnc(Sc2ccccc2F)nc1 [Analog 63]
21 | 1.4 |  |  |  | CC(C)(Oc1ccc(Cl)cc1)C(=O)Nc1cnc(Oc2cc(F)cc(F)c2)nc1 [Analog 42]
22 | 1.8 |  |  |  | COc1ccc(Oc2ncc(NC(=O)C(C)(C)Oc3ccc(Cl)cc3)cn2)cc1 [Analog 29]
23 | 2.1 |  |  |  | CN(c1ncc(NC(=O)C(C)(C)Oc2ccc(Cl)cc2)cn1)c1ccccc1F [Analog 65]

Row | IC50 [µM] | SLACK Imax [%] | WT SLACK inhibition, result in words | Fold less potent than hit 10 (SLACK inhibition) | Compound
24 | > 10 | 110 | only a weak inhibitor |  | CC(C)(Oc1ccc(Cl)cc1)C(=O)Nc1cnc(Oc2ccc(C(N)=O)cc2)nc1 [Analog 37]
25 | 1.4 |  |  |  | CC(C)(Oc1ccc(Cl)cc1)C(=O)Nc1cnc(Oc2ccccc2F)nc1 [Analog 10]
26 | 1.4 | 101 |  |  | CN(c1ccc(S(C)(=O)=O)cc1)c1ncc(NC(=O)C(C)(C)Oc2ccc(Cl)cc2)cn1 [Analog 67]
27 | 1.4 |  |  |  | CC(C)(Oc1ccc(Cl)cc1)C(=O)Nc1cnc(Oc2ccccc2OC(F)(F)F)nc1 [Analog 30]
28 | > 10 | 109 | only weak inhibitors |  | CC(C)(Oc1ccc(C#N)cc1)C(=O)Nc1cnc(Oc2ccccc2F)nc1 [Analog 59]
29 | 1.8 |  |  |  | CC(C)(Oc1ccc(Cl)cc1)C(=O)Nc1cnc(Oc2ccccc2F)c(C#N)c1 [Analog 87]
30 | > 10 | 50 | only weak inhibitors |  | CC(C)(Oc1ccc(Cl)cc1)C(=O)Nc1cnc(Oc2ccccc2F)cn1 [Analog 90]
31 | 4.6 | 98 |  |  | CC(C)(Oc1cccc(OC(F)(F)F)c1)C(=O)Nc1cnc(Oc2ccccc2F)nc1 [Analog 57]
32 | 1.7 |  |  |  | CC(C)(Oc1ccc(Cl)cc1)C(=O)Nc1cnc(Oc2ccccc2C(F)(F)F)nc1 [Analog 24]
33 | 1 |  |  |  | CC(C)(Oc1ccc(Cl)cc1)C(=O)Nc1cnc(Oc2ccc(C(F)(F)F)cc2)nc1 [Analog 26]
34 | 3.1 |  |  | ~2 fold | CC(C)(Oc1ccc(Cl)cc1)C(=O)Nc1ccc(Oc2ccccc2F)nc1 [Analog 86]
35 | 4.1 |  |  |  | CC(C)(Oc1ccc(S(F)(F)(F)(F)F)cc1)C(=O)Nc1cnc(Oc2ccccc2F)nc1 [Analog 62]
36 | 1.3 | 101 |  |  | CC(C)(Oc1ccc(Cl)cc1)C(=O)Nc1cnc(Oc2cc(F)ccc2F)nc1 [Analog 39]
37 | 3.7 | 99 |  |  | CC(C)(Oc1cccc(C(F)(F)F)c1)C(=O)Nc1cnc(Oc2ccccc2F)nc1 [Analog 54]
38 | 2.1 |  |  |  | CC(C)(Oc1ccc(Cl)cc1)C(=O)Nc1cnc(Oc2cccc(F)c2)nc1 [Analog 16]
39 | 2.9 |  |  |  | Cc1ccccc1Oc1ncc(NC(=O)C(C)(C)Oc2ccc(Cl)cc2)cn1 [Analog 21]
40 | 2.4 | 101 |  |  | COc1cccc(Oc2ncc(NC(=O)C(C)(C)Oc3ccc(Cl)cc3)cn2)c1 [Analog 28]
41 | 1.9 |  |  |  | CC(C)(Oc1ccc(Cl)cc1)C(=O)Nc1cnc(Oc2ccc(OC(F)(F)F)cc2)nc1 [Analog 32]
42 | 1.2 |  |  |  | CC(C)(Oc1ccc(Cl)cc1)C(=O)Nc1cnc(Oc2ccc(Cl)cc2)nc1 [Analog 20]
43 | 1 | 101 |  |  | CC(C)(Oc1ccc(Cl)cc1)C(=O)Nc1cnc(Oc2ccc(F)cc2F)nc1 [Analog 38]
44 | 1.9 | 101 |  |  | CC(C)(Oc1ccc(Cl)cc1)C(=O)Nc1cnc(Oc2cccc(C(F)(F)F)c2)nc1 [Analog 25]
45 | 2.9 |  |  | approximately 2 fold | Cc1ccccc1OC(C)(C)C(=O)Nc1cnc(Oc2ccccc2F)nc1 [Analog 50]
46 | 1.7 |  |  |  | Cc1ccc(Oc2ncc(NC(=O)C(C)(C)Oc3ccc(Cl)cc3)cn2)cc1 [Analog 23]

Row | Compound | IC50 [µM] | SLACK Imax [%] | WT SLACK inhibition, result in words | Fold less potent than hit 10 (SLACK inhibition)
47 | CC(C)(Oc1ccccc1OC(F)(F)F)C(=O)Nc1cnc(Oc2ccccc2F)nc1 [Analog 56] |  |  | inactive up to the top concentration of 30 µM | 
48 | Cc1cccc(OC(C)(C)C(=O)Nc2cnc(Oc3ccccc3F)nc2)c1 [Analog 51] |  |  | inactive up to the top concentration of 30 µM | 
49 | CC(C)(Oc1ccc(C(N)=O)cc1)C(=O)Nc1cnc(Oc2ccccc2F)nc1 [Analog 61] |  |  | inactive up to the top concentration of 30 µM | 
